Assay results published in ChEMBL document CHEMBL1145373, “Syntheses of potent, selective, and orally bioavailable indazole-pyridine series of protein kinase B/Akt inhibitors with reduced hypotension” (J Med Chem, 2007).

Columns and labels:
[1] = Cytotoxicity against human MIA PaCa cells by MTT assay; assay type: functional, cell-based
[2] = target: cAMP-dependent protein kinase (PKA) (Homo sapiens, UniProt P22694+P17612+P22612); test: Inhibition of PKA; assay type: protein assay
[3] = Oral bioavailability in mouse at 10 mg/kg, po; assay type: ADME, organism-based; conditions: in vivo
[4] = Half life in mouse at 10 mg/kg, po; assay type: ADME, organism-based; parameters: dose 10 mg/kg, route oral; conditions: in vivo
[5] = Toxicity assessed as prolongation of action potential duration in dog purkinje fibres at 20 uM; assay type: tissue-based, Canis lupus familiaris, Purkinje fiber
[6] = AUC in mouse at 10 mg/kg, po; assay type: ADME, organism-based; parameters: dose 10 mg/kg, route oral; conditions: plasma
[7] = Oral bioavailability in orally dosed rat; assay type: ADME, organism-based; conditions: in vivo
[8] = Hypotensive effect in dog femoral artery by femoral artery relaxation assay; assay type: functional, tissue-based, Canis lupus familiaris
[9] = Oral bioavailability in dog at 2.5 mg/kg, po; assay type: ADME, organism-based, Canis lupus familiaris; conditions: in vivo
[10] = Half life in mouse at 3 mg/kg, iv; assay type: ADME, organism-based; parameters: dose 3 mg/kg, route intravenous; conditions: in vivo
Mus musculus = test: Toxicity assessed as decrease in MAP in mouse at 150 mg/kg, po; assay type: organism-based; parameters: dose 150 mg/kg, route oral; conditions: in vivo
[11] = target: Voltage-gated inwardly rectifying potassium channel KCNH2 (Homo sapiens, UniProt Q12809); test: Inhibition of hERG by patch clamp assay; assay type: toxicity
Chain of Voltage-gated inwardly rectifying potassium channel KCNH2 (Q12809 whole entry): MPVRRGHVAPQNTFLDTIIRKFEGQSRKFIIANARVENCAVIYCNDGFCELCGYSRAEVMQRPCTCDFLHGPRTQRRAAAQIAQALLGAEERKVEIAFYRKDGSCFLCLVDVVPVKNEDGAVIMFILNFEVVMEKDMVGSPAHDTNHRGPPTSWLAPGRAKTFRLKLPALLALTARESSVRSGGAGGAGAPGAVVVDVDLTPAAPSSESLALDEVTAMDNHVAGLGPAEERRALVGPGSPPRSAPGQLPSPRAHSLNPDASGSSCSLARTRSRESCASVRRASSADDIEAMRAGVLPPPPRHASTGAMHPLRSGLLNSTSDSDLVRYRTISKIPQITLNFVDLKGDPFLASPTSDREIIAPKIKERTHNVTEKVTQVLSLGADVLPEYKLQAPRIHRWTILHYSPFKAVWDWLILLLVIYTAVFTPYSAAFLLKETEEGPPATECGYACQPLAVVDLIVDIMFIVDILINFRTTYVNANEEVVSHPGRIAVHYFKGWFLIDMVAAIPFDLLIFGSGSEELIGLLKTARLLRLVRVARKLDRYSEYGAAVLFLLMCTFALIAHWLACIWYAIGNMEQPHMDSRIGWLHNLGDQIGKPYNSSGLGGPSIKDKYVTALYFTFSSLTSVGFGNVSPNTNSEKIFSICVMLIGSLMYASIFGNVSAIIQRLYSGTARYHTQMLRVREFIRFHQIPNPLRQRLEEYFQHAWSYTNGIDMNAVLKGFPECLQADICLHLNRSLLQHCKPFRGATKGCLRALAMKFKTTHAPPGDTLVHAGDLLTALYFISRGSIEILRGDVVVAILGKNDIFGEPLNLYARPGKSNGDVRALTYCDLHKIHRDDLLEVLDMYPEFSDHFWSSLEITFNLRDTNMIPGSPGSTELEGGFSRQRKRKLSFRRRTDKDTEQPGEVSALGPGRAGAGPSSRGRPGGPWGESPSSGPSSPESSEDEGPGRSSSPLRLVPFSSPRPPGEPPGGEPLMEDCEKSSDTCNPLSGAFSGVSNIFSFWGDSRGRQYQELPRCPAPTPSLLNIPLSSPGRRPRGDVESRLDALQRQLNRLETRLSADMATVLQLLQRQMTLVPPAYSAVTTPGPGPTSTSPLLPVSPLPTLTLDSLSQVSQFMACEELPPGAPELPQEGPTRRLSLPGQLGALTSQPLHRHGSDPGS

Canis familiaris [12] = test: Cardiovascular toxicity assessed as induction of acute hypotension in dog at 25 mg/kg, iv by femoral artery relaxation assay; assay type: organism-based, Canis lupus familiaris; parameters: dose 25 mg/kg, route intravenous; conditions: in vivo
Canis familiaris [13] = test: Toxicity assessed as decrease in MAP in dog infused at 0.48 mg/kg/min; assay type: organism-based, Canis lupus familiaris; conditions: in vivo

In the case of `Cc1n[nH]c2ccc(-c3cncc(OC[C@@H](N)Cc4ccccc4OC(F)(F)F)c3)cc12`, the EC50 [1] is reported as 230 nM.
`COc1ccc(F)cc1C[C@H](N)COc1cncc(-c2ccc3[nH]nc(C)c3c2)c1` showed an EC50 [1] of 230 nM.
Molecule `Cc1n[nH]c2ccc(-c3cncc(OC[C@@H](N)Cc4cccc(C(F)(F)F)c4)c3)cc12` has an IC50 [2] of 5 nM and an EC50 [1] of 600 nM.
With `Cc1n[nH]c2ccc(-c3cncc(OC[C@@H](N)Cc4ccc(F)c(C(F)(F)F)c4)c3)cc12` the EC50 [1] was 600 nM.
In the case of `Cc1n[nH]c2ccc(-c3cncc(OC[C@@H](N)Cc4ccc5c(c4)OC(F)(F)C(F)(F)O5)c3)cc12`, the EC50 [1] is reported as 3700 nM.
`Cc1n[nH]c2ccc(-c3cncc(OC[C@@H](N)Cc4cccc(OCC5CCNCC5)c4)c3)cc12` showed an EC50 [1] of 250 nM.
Work on `Cc1n[nH]c2ccc(-c3cncc(OC[C@@H](N)Cc4cccc(OCC5CCCCC5)c4)c3)cc12` yielded an EC50 [1] of 16500 nM.
In the case of `Cc1n[nH]c2ccc(-c3cncc(OC[C@@H](N)Cc4cccc(OCC5CCN(C)CC5)c4)c3)cc12`, the EC50 [1] is reported as 1250 nM.
For `Cc1n[nH]c2ccc(-c3cncc(OC[C@@H](N)Cc4cccc(OCCN)c4)c3)cc12`, the EC50 [1] was 4800 nM.
`N[C@H](COc1cncc(-c2cc3cn[nH]c3cn2)c1)Cc1cccc(C(F)(F)F)c1` showed an IC50 [2] of 78 nM and an EC50 [1] of 2390 nM.
`Cc1n[nH]c2cnc(-c3cncc(OC[C@@H](N)Cc4cccc(C(F)(F)F)c4)c3)cc12` gave an IC50 [2] of 13 nM, a bioavailability [3] of 25% and a half-life [4] of 1.84 h. It also gave an Activity [5] of -4%, an EC50 [1] of 370 nM and an AUC [6] of 1.7 µM·h.
Molecule `Cc1cc(C[C@H](N)COc2cncc(-c3ccc4[nH]nc(C)c4c3)c2)ccc1Br` has an EC50 [1] of 1260 nM.
For `Cc1ccc(C[C@H](N)COc2cncc(-c3ccc4[nH]nc(C)c4c3)c2)cc1F`, the EC50 [1] was 330 nM.
In the case of `Cc1cc(C)c(C[C@H](N)COc2cncc(-c3ccc4[nH]nc(C)c4c3)c2)c(C)c1`, the EC50 [1] is reported as 1610 nM.
With `Cc1n[nH]c2ccc(-c3cncc(OC[C@@H](N)Cc4cccc(OC(F)(F)F)c4)c3)cc12` the EC50 [1] was 830 nM.
With `Cc1n[nH]c2ccc(-c3cncc(OC[C@@H](N)Cc4cc(C(F)(F)F)ccc4F)c3)cc12` the EC50 [1] was 970 nM.
With `Cc1n[nH]c2ccc(-c3cncc(OC[C@@H](N)Cc4ccc(C(F)(F)F)cc4F)c3)cc12` the EC50 [1] was 2900 nM.
For `Cc1n[nH]c2ccc(-c3cncc(OC[C@@H](N)Cc4ccc(OC(F)(F)F)cc4)c3)cc12`, the EC50 [1] was 1700 nM.
Molecule `Cc1n[nH]c2ccc(-c3cncc(OC[C@@H](N)Cc4ccc5c(c4)OCO5)c3)cc12` has an EC50 [1] of 580 nM.
`Cc1n[nH]c2ccc(-c3cncc(OC[C@@H](N)Cc4cccc5c4OC(F)(F)O5)c3)cc12` gave an EC50 [1] of 680 nM.
`Cc1n[nH]c2ccc(-c3cncc(OC[C@@H](N)Cc4ccc(Br)cc4F)c3)cc12` showed an EC50 [1] of 900 nM.
Molecule `Cc1n[nH]c2ccc(-c3cncc(OC[C@@H](N)Cc4ccc(Br)c(F)c4)c3)cc12` has an EC50 [1] of 430 nM.
Work on `Cc1ccc(F)cc1C[C@H](N)COc1cncc(-c2ccc3[nH]nc(C)c3c2)c1` yielded an EC50 [1] of 240 nM.
`Cc1n[nH]c2ccc(-c3cncc(OC[C@@H](N)Cc4cccc(F)c4)c3)cc12` showed an EC50 [1] of 260 nM.
Molecule `Cc1n[nH]c2ccc(-c3cncc(OC[C@@H](N)Cc4ccc(F)cc4F)c3)cc12` has an EC50 [1] of 930 nM.
With `Cc1n[nH]c2ccc(-c3cncc(OC[C@@H](N)Cc4cccc(I)c4)c3)cc12` the EC50 [1] was 810 nM.
`Cc1n[nH]c2ccc(-c3cncc(OC[C@@H](N)Cc4ccc(F)c(F)c4F)c3)cc12` gave an EC50 [1] of 290 nM.
For `Cc1n[nH]c2ccc(-c3cncc(OC[C@@H](N)Cc4cccc(Cl)c4)c3)cc12`, the EC50 [1] was 450 nM.
Work on `Cc1n[nH]c2ccc(-c3cncc(OC[C@@H](N)Cc4ccc(Cl)cc4)c3)cc12` yielded an EC50 [1] of 440 nM.
Molecule `Cc1n[nH]c2ccc(-c3cncc(OC[C@@H](N)Cc4ccccc4Br)c3)cc12` has an EC50 [1] of 340 nM.
Molecule `Cc1n[nH]c2ccc(-c3cncc(OC[C@@H](N)Cc4ccc(Br)cc4)c3)cc12` has an EC50 [1] of 700 nM.
In the case of `Cc1n[nH]c2ccc(-c3cncc(OC[C@@H](N)Cc4ccc(Cl)c(F)c4)c3)cc12`, the bioavailability [3] is reported as 84%, the bioavailability [7] is reported as 38% and the half-life [4] is reported as 2.1 h. It also gave an Activity [5] of -1.3%, an EC50 [1] of 270 nM and an EC50 [8] of 6000 nM. The AUC [6] was 2.3 µM·h and the bioavailability [9] was 40%.
For `Cc1n[nH]c2ccc(-c3cncc(OC[C@@H](N)Cc4cccc(Cl)c4Cl)c3)cc12`, the EC50 [1] was 210 nM.
`Cc1n[nH]c2ccc(-c3cncc(OC[C@@H](N)Cc4ccc(Cl)c(Cl)c4)c3)cc12` showed an EC50 [1] of 490 nM.
Work on `Cc1n[nH]c2ccc(-c3cncc(OC[C@@H](N)Cc4cc(F)cc(C(F)(F)F)c4)c3)cc12` yielded an EC50 [1] of 1380 nM.
Work on `Cc1n[nH]c2ccc(-c3cncc(OC[C@@H](N)Cc4ccc(C(F)(F)F)c(F)c4)c3)cc12` yielded an EC50 [1] of 1430 nM.
`Cc1n[nH]c2ccc(-c3cncc(OC[C@@H](N)Cc4ccc(F)c(Cl)c4)c3)cc12` gave an EC50 [1] of 670 nM.
`Cc1n[nH]c2ccc(-c3cncc(OC[C@@H](N)Cc4cc(Cl)cc(Cl)c4)c3)cc12` gave an EC50 [1] of 1000 nM.
Work on `Cc1cc(F)ccc1C[C@H](N)COc1cncc(-c2ccc3[nH]nc(C)c3c2)c1` yielded an EC50 [1] of 340 nM.
Work on `Cc1n[nH]c2ccc(-c3cncc(OC[C@@H](N)Cc4ccccc4)c3)cc12` yielded a bioavailability [3] of 70%, a half-life [10] of 1 h and a half-life [4] of 1 h. For the same molecule, the Activity [5] was “Toxic”, the EC50 [1] was 640 nM and the Activity (Mus musculus) was 31 mmHg. For the same molecule, the IC50 [11] was 13400 nM and the AUC [6] was 2 µM·h.
`Cc1n[nH]c2ccc(-c3cncc(OC[C@@H](N)Cc4cccc(OCCC5CCNCC5)c4)c3)cc12` gave an EC50 [1] of 2740 nM.
For `N[C@H](COc1cncc(-c2ccc3c(c2)/C(=C/c2ccc[nH]2)C(=O)N3)c1)Cc1ccccc1`, the bioavailability [3] was 0%, the Activity (Canis familiaris [12]) was 30 mmHg and the half-life [10] was 0.5 h. The EC50 [8] was 354000 nM.
In the case of `N[C@H](COc1cncc(-c2cc3c(Cl)n[nH]c3cn2)c1)Cc1cccc(C(F)(F)F)c1`, the IC50 [2] is reported as 15 nM and the EC50 [1] is reported as 1380 nM.
For `Cc1n[nH]c2ccc(-c3cncc(OC[C@@H](N)Cc4ccccc4Cl)c3)cc12`, the EC50 [1] was 380 nM.
`Cc1n[nH]c2ccc(-c3cncc(OC[C@@H](N)Cc4cccc(Br)c4)c3)cc12` gave an EC50 [1] of 370 nM.
With `Cc1n[nH]c2ccc(-c3cncc(OC[C@@H](N)Cc4cccc(OCCN5CCOCC5)c4)c3)cc12` the EC50 [1] was 13000 nM.
Work on `Cc1n[nH]c2cnc(-c3cncc(OC[C@@H](N)Cc4cccc(F)c4F)c3)cc12` yielded an IC50 [2] of 7 nM and an EC50 [1] of 260 nM.
`Cc1cc(C[C@H](N)COc2cncc(-c3ccc4[nH]nc(C)c4c3)c2)ccc1F` gave an EC50 [1] of 1070 nM.
Molecule `Cc1n[nH]c2ccc(-c3cncc(OC[C@@H](N)Cc4cccc(F)c4F)c3)cc12` has an IC50 [2] of 9 nM and an EC50 [1] of 180 nM.
`N[C@H](COc1cncc(-c2ccc3c(c2)/C(=C\c2ccco2)C(=O)N3)c1)Cc1ccccc1` (stereo in doubt) gave a bioavailability [3] of 0% and a half-life [10] of 1.15 h.
`Cc1n[nH]c2ccc(-c3cncc(OC[C@@H](N)Cc4c[nH]c5ccccc45)c3)cc12` [A-443654] showed a half-life [10] of 0.6 h, a half-life [4] of 0.6 h and an Activity [5] of 2.4%. For the same molecule, the Activity (Canis familiaris [13]) was 60 mmHg.
